The source of these data is patent US20260216057A1, “PHARMACEUTICAL COMPOSITIONS FOR HERPES VIRUS” (priority 2022, published 2026).

For orientation: AUC(0-t) means exposure summed from dosing to a finite time, without extrapolation to infinity.

Data set [1] deals with genital HSV. Particulars: oral, 28 days, cited from earlier work.
Data set [2] in a line: Example 3: pritelivir aqueous suspension SC PK study in monkey. Type of data set: in vivo, male cynomolgus monkeys. Particulars: aqueous suspension (dihydrate), 10 mg/kg. On the procedure:
The LC-MS methodology and conditions used to analyse pritelivir in plasma samples from the PK studies described in Examples 1 to 5 are provided in Table 1.
An aqueous suspension of crystalline pritelivir free base (dihydrate) in a 0.9% NaCl+0.5% polysorbate 80 vehicle at a concentration of 3.0 mg/mL was prepared as follows: • 1) Vehicle (0.9% w/w NaCl and 0.5% w/w polysorbate 80) was prepared by dissolving NaCl and polysorbate 80 in water. • 2) Appropriate amount of crystalline pritelivir free base (dihydrate) was weighed and added to the vehicle. • 3) Mixture was stirred for 15 minutes, then vortexed for 1 minute and then sonicated for 10 minutes. • 4) The final dosing formulation was a homogenous white cloudy suspension.
Male non-naïve Cyno Monkeys with −5 kg body weight was used for the monkey PK study. The animals had free access to food and water. The prepared suspension was administered via subcutaneous injection to each animal group (n=3) with a dosing volume of 3.33 mL/kg to achieve a 10 mg/kg dose.
At each time point, approximately 0.5 mL whole blood was collected via the cephalic vein into K2EDTA tubes. Blood samples were put on to ice and centrifuged at 2000 g for 5 min to obtain plasma sample within 15 minutes. Plasma samples were stored at approximately −70° C. until analyzed by LC-MS.

Data set [3] can be described thus: Example 5: comparative pritelivir solution PK study in rat following IV/SC administration. The class given is in vivo, male Sprague Dawley rats. As to conditions: for AUC(0-t): male, Sprague Dawley, plasma, solution, n = 3. On the procedure: A solution of crystalline pritelivir free base (dihydrate) in 5% NMP, 5% Solutol HS15 & 90% saline at a concentration of 0.5 mg/mL was prepared as follows: • 1) A stock solution of 10 mg/mL of pritelivir (dihydrate) in NMP was prepared. • 2) Equal volumes of the pritelivir stock solution and Solutol HS15 were combined and mixed. • 3) The above solution was diluted with normal saline to reach target 0.5 mg/mL pritelivir concentration. The formulation was a clear solution.
Male Sprague Dawley (SD) rats with ~300 g body weight (ages 6-8 weeks) were used for the pharmacokinetic study. The animals had free access to food and water. The pritelivir solution described above was administered via intravenous injection to animals (n=3) with a dosing volume of 2 mL/kg to achieve a 1 mg/kg dose. For subcutaneous injection, the dosing volume of 10 mL/kg was utilized to achieve a 5 mg/kg dose.
At each time point, approximately 200 μL whole blood was collected in a K2EDTA tube via the jugular vein. Blood samples were put on ice and centrifuged at 2000 g for 5 min to obtain a plasma sample within 15 minutes. Plasma samples were stored at approximately −70° C. until analyzed by LC-MS according to the method described above.

A short description of data set [4]: Example 13: Compound 1 IV PK study in dog. Particulars: male, beagle, plasma, 0.15 mg/kg, read-out: Dog t1/2 (converted). Type of data set: in vivo, male non-naïve Beagle dogs. On the procedure:
The LC-MS methodology and conditions used to analyse Compound 1 in plasma samples from the intra-venous injection PK studies (Example 13) are described in Tables 5 to 7. A 0.15 mg/mL solution of Compound 1 in 10% DMSO, 10% Solutol HS15 and 80% Saline was prepared as follows: • 1) A stock solution of Compound 1 in DMSO was prepared. • 2) An equal volume of the Compound 1 stock solution and Solutol HS15 were combined and mixed. • 3) The above solution was diluted with normal saline to reach the target concentration. The final formulation was a clear solution. Male non-naïve beagles were used for the dog PK study. The animals had free access to food and water. […] At each time point, approximately 0.5 mL of whole blood was collected into K2EDTA tubes. Blood samples were put on ice and centrifuged at 2000 g for 5 min to obtain plasma samples within 15 minutes. Plasma samples were stored at approximately −70° C. until analyzed by LC-MS.

A short description of data set [5]: Injection site observation in Example 10-12 Compound 1 PK studies. Type of data set: in vivo, rat, monkey, dog. Particulars: SC Compound 1 depot formulations, Examples 10-12, 3 species. On the procedure:
The Compound 1 suspension described above was administered via sub-cutaneous injection to each animal group (n=3) with a dosing volume of 3.33 mL/kg to achieve a 10 mg/kg dose.
Male non-naïve Cyno Monkeys with ~4-6 kg body weight were used for the monkey PK study. The animals had free access to food and water. The prepared suspension was administered via subcutaneous injection to each animal group (n=3) with a dosing volume of 3.33 mL/kg to achieve a 10 mg/kg dose.
Male non-naïve beagles with ~10 kg body weight were used for the dog PK study. The animals had free access to food and water. The prepared suspension was administered via subcutaneous injection to each animal group (n=3) with a dosing volume of 2 mL/kg to achieve a 10 mg/kg dose.

A short description of data set [6]: Example 13A: Compound 1 IV PK study in monkey. The class given is in vivo, male non-naïve cynomolgus monkeys. Particulars: 0.2 mg/kg. The method, then: A 0.2 mg/mL solution of Compound 1 in 10% DMSO, 10% Solutol HS15 and 80% Saline was prepared as follows: • 1) A stock solution of Compound 1 in DMSO was prepared. • 2) An equal volume of the Compound 1 stock solution and Solutol HS15 were combined and mixed. • 3) The above solution was diluted with normal saline to reach the target concentration. The final formulation was a clear solution. Male non-naïve Cyno Monkeys with were used for the monkey PK study. The animals had free access to food and water. The Compound 1 solution described above was administered via intravenous injection (1 mL/kg) to each animal (n=3) to achieve a 0.2 mg/kg dose. At each time point, approximately 0.5 mL whole blood was collected into K2EDTA tubes. Blood samples were put on to ice and centrifuged at 2000 g for 5 min to obtain plasma sample within 15 minutes. Plasma samples were stored at approximately −70° C. until analyzed by LC-MS.

The structures appear in SMILES notation.

Take `Cc1nc(N(C)C(=O)Cc2ccc(-c3ccccn3)cc2)sc1S(N)(=O)=O` [pritelivir, N-methyl-N-(4-methyl-5-sulfamoyl-1,3-thiazol-2-yl)-2-[4-(pyridin-2-yl)phenyl]acetamide]: the “rate of genital HSV shedding” value in data set [1] (at high doses, vs placebo) is “reduced the rate of genital HSV shedding”. For the same compound, in data set [1] (men and women with genital herpes), the “number of days with lesions” value is “reduced the number of days with lesions”. Also, the “prolonged exposure out to (length of the study)” value in data set [2] is given as “at least 456 hours”. In data set [3] (intravenous (IV), 1 mg/kg), this compound registered an F of 100%. In addition, the AUC(0-t) in data set [3] (intravenous (IV), 1 mg/kg) was 31.8 µg·h/mL; in data set [3] (subcutaneous (SC), 5 mg/kg), 185 µg·h/mL.
As to `Cc1nc(N2CCCN(c3ccc(-c4cc(F)ccc4F)cc3)C2=O)sc1S(N)(=O)=O` [Compound 1, 2-(3-(2′,5′-difluoro-[1,1′-biphenyl]-4-yl)-2-oxotetrahydropyrimidin-1(2H)-yl)-4-methylthiazole-5-sulfonamide], the half-life in data set [4] was 34.9 h. The “adverse reactions at the injection sites” value in data set [5] is “no adverse reactions observed”. In data set [6], this compound displayed a Clearance of 4 mL/h/kg and a half-life of 72 h.
